From PMC4401630 (Clinical cancer research : an official journal of the …, 2015)
“And” between values parts separate entries of the source, which are not always exact repeats. Equal values may be shown once.

What was measured:
[1] = system: resectable non-small cell lung cancer (NSCLC); experiment: Metabolic response on paired 18F-FDG PET/CT; assay type: in vivo, human; details: for Change in metabolic activity (SUVmax): up to 28 days, control 29.0%; for Change in metabolic activity (SUVmax) / Mean reduction in SUVmax (percent change of initial SUVmax): p=0.014; for Mean reduction in SUVmax (percent change of initial SUVmax): control mean increase of 29%
[2] = system: resectable non-small cell lung cancer (NSCLC); experiment: Anatomic response, tumor size; assay type: in vivo, human
[3] = system: S6; experiment: Immunohistochemistry of paired tumor tissues; assay type: in vivo, human; details: mean (±SD)
[4] = system: phospho-S6 Ser235/236 (pS6); experiment: Immunohistochemistry of paired tumor tissues; assay type: in vivo, human; details: mean (±SD)
[5] = system: pS6/S6; experiment: Immunohistochemistry of paired tumor tissues; assay type: in vivo, human; details: mean (±SD)
[6] = system: phospho-mTOR Ser2448 (pMTOR); experiment: Immunohistochemistry of paired tumor tissues; assay type: in vivo, human; details: mean (±SD)
[7] = system: phospho-4E-BP1 Thr37/46 (p4E-BP1); experiment: Immunohistochemistry of paired tumor tissues; assay type: in vivo, human; details: mean (±SD)
[8] = system: p70S6K; experiment: Immunohistochemistry of paired tumor tissues; assay type: in vivo, human; details: mean (±SD)
[9] = system: phospho-eIF4E Ser209 (pe1f4e); experiment: Immunohistochemistry of paired tumor tissues; assay type: in vivo, human; details: mean (±SD)
[10] = system: phospho-Akt Ser473 (pAKT); experiment: Immunohistochemistry of tumor tissues; assay type: in vivo, human
[11] = Safety: treatment-emergent adverse events; assay type: in vivo, human
[12] = system: BCL2L-11 gene; experiment: Gene expression profiling by RNA-Seq, baseline vs post-treatment tumor; assay type: in vivo, human; details: responder with sarcomatoid NSCLC, 10mg everolimus
[13] = system: Bim; experiment: Immunohistochemistry of tumor tissues; details: for BIM expression immunoscore in post-treatment samples: control 48.6
[14] = Everolimus pharmacokinetic analysis in whole blood; details: for Tmax: NSCLC patients
[15] = dose of everolimus 5, listed as Everolimus
[16] = dose of everolimus 10, listed as Everolimus
[17] = dose of everolimus 10, mean (±SD)
[18] = human, whole blood, oral, 10 mg

CO[C@H]1C[C@@H]2CC[C@@H](C)[C@@](O)(O2)C(=O)C(=O)N2CCCC[C@H]2C(=O)O[C@H]([C@H](C)C[C@@H]2CC[C@@H](OCCO)[C@H](OC)C2)CC(=O)[C@H](C)/C=C(\C)[C@@H](O)[C@@H](OC)C(=O)[C@H](C)C[C@H](C)/C=C/C=C/C=C/1C [everolimus]
Change in metabolic activity (SUVmax) ([1]; 5mg cohort): −21% | Partial metabolic response (PMR) rate, PERCIST ([1]; 5mg everolimus group): 36% | Stable metabolic disease (SMD) rate, PERCIST ([1]; 5mg everolimus group): 64% | Change in metabolic activity (SUVmax) ([1]; 10mg cohort): −24% | Partial metabolic response (PMR) rate, PERCIST ([1]; 10mg everolimus group): 50% | Stable metabolic disease (SMD) rate, PERCIST ([1]; 10mg everolimus group): 50% | Reduction in mean metabolic activity, RAS mutant tumors ([1]; RAS mutant tumors treated with everolimus (10mg), control 88% increase, p=0.218): 30% | Mean reduction in SUVmax (percent change of initial SUVmax) ([1]; everolimus 5mg): 21% | Mean reduction in SUVmax (percent change of initial SUVmax) ([1]; everolimus 10mg): 24% | Reduction in metabolic activity, non-RAS mutant tumors ([1]; everolimus (10mg) group, control 12% increase, p=0.039): 21% | Reduction in SUVmax, single patient (near complete metabolic response) ([1]; one patient, sarcomatoid NSCLC, 10mg everolimus for 3 weeks): 74% | Patients achieving SD (RECIST) ([2]; 5mg everolimus): 82% | Patients with best response of PD (RECIST) ([2]; 5mg everolimus): 18% | Change in tumor size ([2]; 10mg cohort, control 10.1%, p=0.047): −11.6% | Patients meeting RECIST criteria for partial response ([2]; 10mg everolimus group): 9% | Patients with SD (RECIST) ([2]; 10mg everolimus group): 91% | Tumor shrinkage in partial response ([2]; 10mg everolimus group, partial response): 30% | S6 percent change in immunoscore, post-treatment relative to baseline ([3]; dose of everolimus 5): −13.7% | S6 percent change in immunoscore, post-treatment relative to baseline [3, 15]: −13.69 (± 144.05) % | S6 percent change in immunoscore, post-treatment relative to baseline ([3]; dose of everolimus 10): −77.0% and −77.03% | S6 percent change in immunoscore, post-treatment relative to baseline [3, 16]: −77.03 (± 16.02) % | pS6 percent change in immunoscore, post-treatment relative to baseline ([4]; dose of everolimus 5): −61.57% | pS6 percent change in immunoscore, post-treatment relative to baseline [4, 15]: −61.57 (± 35.8) % | pS6 percent change in immunoscore, post-treatment relative to baseline ([4]; dose of everolimus 10): −47.21% | pS6 percent change in immunoscore, post-treatment relative to baseline [4, 16]: −47.21 (± 44.96) % | pS6/S6 percent change, post-treatment relative to baseline ([5]; dose of everolimus 5): −100 (±NA) % | pS6/S6 percent change, post-treatment relative to baseline ([5]; dose of everolimus 10): 128.57 (± 219.26) % | pMTOR percent change in immunoscore, post-treatment relative to baseline ([6]; dose of everolimus 5): 30 (± 153.95) % | pMTOR percent change in immunoscore, post-treatment relative to baseline ([6]; dose of everolimus 10): −63.82 (± 51.3) % | p4E-BP1 percent change in immunoscore, post-treatment relative to baseline ([7]; dose of everolimus 5): 150 (±NA) % | p4E-BP1 percent change in immunoscore, post-treatment relative to baseline ([7]; dose of everolimus 10): −78.75 (± 14.36) % | p70s6k percent change in immunoscore, post-treatment relative to baseline ([8]; dose of everolimus 5): 137.14 (± 442.07) % | p70s6k percent change in immunoscore, post-treatment relative to baseline ([8]; dose of everolimus 10): −78.62 (± 22.79) % | pe1f4e percent change in immunoscore, post-treatment relative to baseline ([9]; dose of everolimus 5): 2.78 (± 5.56) % | pe1f4e percent change in immunoscore, post-treatment relative to baseline ([9]; dose of everolimus 10): −27.13 (± 42.17) % | Unmatched mean immunoscore, nuclear pAKT staining, post-treatment ([10]; 5 mg cohort, baseline 0.3): 15 | Unmatched mean immunoscore, cytoplasmic pAKT staining, post-treatment ([10]; 5 mg cohort, baseline 13.1): 47.5 | Unmatched mean immunoscore, nuclear pAKT staining, post-treatment ([10]; 10 mg cohort, baseline 0.01): 4.4 | Unmatched mean immunoscore, cytoplasmic pAKT staining, post-treatment ([10]; 10 mg cohort, baseline 0.42): 2.34 | PAKT Nuclear percent change in immunoscore, post-treatment relative to baseline [10, 17]: 0 (± 0) % | MRSA Bacteremia, Grade 3 ([11]; CTCAE version 3, patients treated with everolimus (5 or 10 mg daily)): 1 | Median length of hospital stay (LOS) after resection ([11]; in vivo): 5 days | Range of length of hospital stay (LOS) after resection ([11]; in vivo): 3 to 43 days | Increase in BCL2L-11 gene (BIM) expression, post-treatment vs baseline sample [12]: 6 fold | BIM expression immunoscore in post-treatment samples ([13]; 5mg everolimus): 84.3 | BIM expression immunoscore in post-treatment samples ([13]; 10mg everolimus): 80.5 | Bim percent change in immunoscore, post-treatment relative to baseline [13, 17]: −21.76 (± 60.07) % | BIM expression immunoscore, treated compared to control patients ([13]; post-treatment samples, treated patients vs control): ~2 fold | Tmax ([14]; 5 mg daily (n=12), whole blood): 2 (1 – 2) hr. | Day 21 Cmax ([14]; 10 mg daily (n=7), whole blood): 0.0515 ± 0.0099 µg/mL | Tmax ([14]; 10 mg daily (n=7), whole blood): 2 (1 – 2) hr. | Accumulation ([14]; at either dose level (5mg, 10mg), days 8 and 21 vs day 1): no significant accumulation | concentration at 8 day ([14]; human, whole blood, oral, 5 mg): 0.0063 ± 0.0029 µg/mL | concentration at 21 day ([14]; human, whole blood, oral, 5 mg): 0.0057 ± 0.0023 µg/mL | half-life ([14]; human, whole blood, oral, 5 mg): 26.5 h | Cmax ([14]; human, whole blood, oral, 5 mg, Day 1 Cmax, 5 mg daily (n=12), whole blood): 0.0292 ± 0.0099 µg/mL | Cmax ([14]; human, whole blood, oral, 5 mg, Day 8 Cmax, 5 mg daily (n=12), whole blood): 0.0421 ± 0.0172 µg/mL | AUC(0-t) ([14]; human, whole blood, oral, 5 mg, Day 21 AUC0-24, 5 mg daily (n=12), whole blood): 0.205 ± 0.0874 µg·h/mL | concentration at 8 day [14, 18]: 0.0178 ± 0.0076 µg/mL | concentration at 21 day [14, 18]: 0.0137 ± 0.0092 µg/mL | AUC(0-t) ([14]; human, whole blood, oral, 10 mg, Day 8 AUC0-24, 10 mg daily (n=7), whole blood): 0.579 ± 0.186 µg·h/mL | AUC(0-t) ([14]; human, whole blood, oral, 10 mg, Day 21 AUC0-24, 10 mg daily (n=7), whole blood): 0.507 ± 0.208 µg·h/mL
